This passage reports IC50 results from US11299478B2, “2-cyanopyrimidin-4-yl carbamate or urea derivative or salt thereof, and pharmaceutical composition including same” (HANLIM PHARMACEUTICAL CO., LTD., priority 2018, dated 2022).

What all share (format): biochemical
One assay concerns the target T1, cathepsin K (Homo sapiens, UniProt P43235).
T1 sequence (P43235 115-329): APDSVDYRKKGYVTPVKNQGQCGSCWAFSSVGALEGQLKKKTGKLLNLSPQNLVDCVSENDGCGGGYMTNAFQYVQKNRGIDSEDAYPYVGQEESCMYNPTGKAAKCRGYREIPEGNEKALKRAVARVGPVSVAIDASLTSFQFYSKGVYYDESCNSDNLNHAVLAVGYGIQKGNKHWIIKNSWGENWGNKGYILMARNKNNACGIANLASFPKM
Briefly: Inhibitory activity assay against cathepsin K (enzyme assay). The settings on record: Z-Phe-Arg-AMC 10 μM, enzyme 1 nM, pH 5.5, 30 minutes. The gist of the method: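 Fluorogenic assay with 1 nM cathepsin K and 10 μM Z-Phe-Arg-AMC in pH 5.5 buffer (50 mM MES, 2 mM DTT, 2.5 mM EDTA, 0.01% Triton X-100, 10% DMSO). Ten compound concentrations, 10.0 to 0.000508 μM; 30 min reaction, ex 355/em 460 nm; IC50 by 4-parameter logistic fit.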

A further assay concerns the target cathepsin L (Homo sapiens, UniProt P07711). The assay is described as follows: Inhibitory activity assay against cathepsin L (enzyme assay). The note with it: Z-Phe-Arg-AMC 2 μM, enzyme 3 nM, pH 5.5, 30 minutes. The gist of the method:
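Enzyme at 3 nM with 2 μM Z-Phe-Arg-AMC in 50 mM MES pH 5.5, 2.5 mM DTT, 2.5 mM EDTA, 0.005% Polysorbate 20, 10% DMSO; 30 min reaction, AMC fluorescence 340/460 nm. Ten-point series 10.0 μM to 0.000508 μM; IC50 by 4-parameter logistic fit.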

Another assay addresses cathepsin B (Homo sapiens, UniProt P07858). Briefly: Inhibitory activity assay against cathepsin B (enzyme assay). The note with it: Z-Arg-Arg-AMC 40 μM, enzyme 1 nM, pH 6.0, 90 minutes. The gist of the method: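 1 nM enzyme with 40 μM Z-Arg-Arg-AMC and compound (10.0 μM down to 0.000508 μM, 10 points) in pH 6.0 buffer of 50 mM MES, 5 mM DTT, 2.5 mM EDTA, 0.005% Polysorbate 20, 10% DMSO. Fluorescence (340/460 nm) read after 90 min; IC50 by 4-parameter logistic fit.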

The target of another assay is cathepsin S (Homo sapiens, UniProt P25774). The assay is described as follows: Inhibitory activity assay against cathepsin S (enzyme assay). The settings on record: Z-Phe-Arg-AMC 70 μM, enzyme 3 nM, pH 6.5, 45 minutes. The gist of the method: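 Cathepsin S (3 nM final) with Z-Phe-Arg-AMC substrate (70 μM final) in pH 6.5 buffer of 50 mM MES, 2.5 mM DTT, 1.0 mM EDTA, 0.001% BSA, 10% DMSO; compound 10.0 μM down to 0.000508 μM, 10 points. Fluorescence (ex 340/em 460 nm) after 45 min; IC50 by 4-parameter logistic fit.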
Sequence of cathepsin S (P25774 115-331, species assumed): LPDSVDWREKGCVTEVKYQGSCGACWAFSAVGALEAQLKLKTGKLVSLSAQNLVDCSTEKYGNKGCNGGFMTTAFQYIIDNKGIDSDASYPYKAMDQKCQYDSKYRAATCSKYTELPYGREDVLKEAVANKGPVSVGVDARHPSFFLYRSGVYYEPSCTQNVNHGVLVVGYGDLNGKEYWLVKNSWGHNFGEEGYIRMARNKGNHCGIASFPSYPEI

Sequence of cathepsin L (P07711 114-333, species assumed): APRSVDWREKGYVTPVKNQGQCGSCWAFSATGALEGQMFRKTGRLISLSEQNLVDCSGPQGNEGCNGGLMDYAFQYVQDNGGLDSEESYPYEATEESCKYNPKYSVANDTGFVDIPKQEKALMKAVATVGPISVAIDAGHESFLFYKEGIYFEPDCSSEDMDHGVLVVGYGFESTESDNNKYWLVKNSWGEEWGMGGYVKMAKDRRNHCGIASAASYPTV

Regarding `CS(=O)(=O)c1ccc(-c2ccc(NC(=O)NC3(c4ccnc(C#N)n4)CCCCC3)cc2C(F)(F)F)cc1C(F)(F)F` [Example 178, 1-(1-(2-cyanopyrimidin-4-yl)cyclohexyl)-3-(4′-(methylsulfonyl)-2,3′-bis(trifluoromethyl)-[1,1′-biphenyl]-4-yl)urea], the IC50 at cathepsin K is 21.2 nM; against cathepsin L, > 10000 nM; on cathepsin B, > 10000 nM; on cathepsin S, 5600 nM.

`Cc1ccc(C(F)(F)F)cc1NC(=O)NC1(c2ccnc(C#N)n2)CCCCC1` [Example 99, 1-(1-(2-cyanopyrimidin-4-yl)cyclohexyl)-3-(2-methyl-5-(trifluoromethyl)phenyl)urea]: the IC50 is 3.2 nM at cathepsin K, 1100 nM on cathepsin L, > 10000 nM on cathepsin B and > 10000 nM against cathepsin S.

`Cc1ccc(CNC(=O)NC2(c3ccnc(C#N)n3)CCCC2)cc1` [Example 48, 1-(1-(2-cyanopyrimidin-4-yl)cyclopentyl)-3-(4-methylbenzyl)urea]: the IC50 is 49.6 nM on cathepsin K, > 10000 nM at cathepsin L, > 10000 nM at cathepsin B and > 10000 nM against cathepsin S.

`Cc1ccc(COC(=O)NC2(c3ccnc(C#N)n3)CCCCC2)cc1` [Example 22, 4-methylbenzyl (1-(2-cyanopyrimidin-4-yl)cyclohexyl)carbamate]: the IC50 on cathepsin K is 37.2 nM; at cathepsin L it was > 10000 nM; on cathepsin B it was > 10000 nM; on cathepsin S, > 10000 nM.

In the case of `N#Cc1nccc(C2(NC(=O)OCc3ccccc3Br)CCCCC2)n1` [Example 19, 2-bromobenzyl (1-(2-cyanopyrimidin-4-yl)cyclohexyl)carbamate], the IC50 at cathepsin K is 18 nM; at cathepsin L it was 1060 nM; at cathepsin B it was > 10000 nM; on cathepsin S, 5850 nM.

For `N#Cc1nccc(C2(NC(=O)Nc3ccc(-c4ccc(N5CCOCC5)cc4)cc3)CCCCC2)n1` [Example 117, 1-(1-(2-cyanopyrimidin-4-yl)cyclohexyl)-3-(4′-morpholino-[1,1′-biphenyl]-4-yl)urea], the IC50 at cathepsin K is 4.1 nM; against cathepsin L, > 10000 nM; at cathepsin B, > 10000 nM; on cathepsin S, > 10000 nM.

In the case of `N#Cc1nccc(C2(NC(=O)Nc3ccc(Br)cc3F)CCCCC2)n1` [Example 134, 1-(4-bromo-2-fluorophenyl)-3-(1-(2-cyanopyrimidin-4-yl)cyclohexyl)urea], the 50% inhibitory concentration (IC50) at cathepsin K was 5.3 nM; on cathepsin L it was > 10000 nM; on cathepsin B it was > 10000 nM; against cathepsin S, > 10000 nM.

With `N#Cc1nccc(C2(NC(=O)Nc3ccc(N4CCOCC4)cc3)CCCCC2)n1` [Example 139, 1-(1-(2-cyanopyrimidin-4-yl)cyclohexyl)-3-(4-morpholinophenyl)urea], the IC50 at cathepsin K was 12.2 nM; at cathepsin L, 7030 nM; at cathepsin B, > 10000 nM; against cathepsin S it was > 10000 nM.

For `N#Cc1nccc(C2(NC(=O)Nc3ccc(C#CCCC(=O)O)cc3)CCCCC2)n1` [Example 182, 5-(4-(3-(1-(2-cyanopyrimidin-4-yl)cyclohexyl)ureido)phenyl)pent-4-ynoic acid], the half-inhibitory concentration (IC50) is 10.5 nM at cathepsin K, > 10000 nM against cathepsin L, > 10000 nM at cathepsin B and > 10000 nM on cathepsin S.

For the compound `N#Cc1nccc(C2(NC(=O)Nc3ccc(-c4ccc(C5CCN(C6CC6)CC5)cc4)c(F)c3)CCCCC2)n1` [Example 168, 1-(1-(2-cyanopyrimidin-4-yl)cyclohexyl)-3-(4′-(1-cyclopropylpiperidin-4-yl)-2-fluoro-[1,1′-biphenyl]-4-yl)urea], the IC50 on cathepsin K was 0.3 nM; on cathepsin L, > 10000 nM; against cathepsin B it was > 10000 nM; against cathepsin S, > 10000 nM.

On to `N#Cc1nccc(C2(NC(=O)OCc3cccc(Br)c3)CCCC2)n1` [Example 3, 3-bromobenzyl (1-(2-cyanopyrimidin-4-yl)cyclopentyl)carbamate], for which the IC50 at cathepsin K was 507 nM; on cathepsin L, 6390 nM; against cathepsin B, > 10000 nM; against cathepsin S, > 10000 nM.

As for `CCN1CCN(c2ccc(NC(=O)NC3(c4ccnc(C#N)n4)CCCCC3)cc2)CC1` [Example 146, 1-(1-(2-cyanopyrimidin-4-yl)cyclohexyl)-3-(4-(4-ethylpiperazin-1-yl)phenyl)urea], the IC50 at cathepsin K was 3.9 nM; at cathepsin L, > 10000 nM; against cathepsin B, > 10000 nM; at cathepsin S, > 10000 nM.

`N#Cc1nccc(C2(NC(=O)Nc3ccccc3O)CCCCC2)n1` [Example 102, 1-(1-(2-cyanopyrimidin-4-yl)cyclohexyl)-3-(2-hydroxyphenyl)urea]: the half-maximal inhibitory concentration (IC50) on cathepsin K was 63.2 nM; against cathepsin L, 3440 nM; on cathepsin B, > 10000 nM; at cathepsin S, 6240 nM.

In the case of `N#Cc1nccc(C2(NC(=O)OCc3ccccc3C(F)(F)F)CCCCC2)n1` [Example 20, 2-(trifluoromethyl)benzyl (1-(2-cyanopyrimidin-4-yl)cyclohexyl)carbamate], the IC50 on cathepsin K is 32.9 nM; against cathepsin L it was 2010 nM; at cathepsin B, > 10000 nM; against cathepsin S, 9230 nM.

Take `N#Cc1nccc(C2(NC(=O)Nc3ccc(N4CCN(C5CC5)CC4)cc3)CCCCC2)n1` [Example 144, 1-(1-(2-cyanopyrimidin-4-yl)cyclohexyl)-3-(4-(4-cyclopropylpiperazin-1-yl)phenyl)urea]: the IC50 on cathepsin K is 18.3 nM; on cathepsin L, > 10000 nM; against cathepsin B, > 10000 nM; against cathepsin S, > 10000 nM.

For `N#Cc1nccc(C2(NC(=O)Nc3ccc(-c4ccc(F)cc4)cc3)CCCCC2)n1` [Example 121, 1-(1-(2-cyanopyrimidin-4-yl)cyclohexyl)-3-(4′-fluoro-[1,1′-biphenyl]-4-yl)urea], the IC50 is 17.2 nM on cathepsin K, > 10000 nM on cathepsin L, > 10000 nM against cathepsin B and > 10000 nM against cathepsin S.

For `N#Cc1nccc(C2(NC(=O)Nc3ccc(-c4ccncc4)cc3)CCCCC2)n1` [Example 119, 1-(1-(2-cyanopyrimidin-4-yl)cyclohexyl)-3-(4-(pyridin-4-yl)phenyl)urea], the half-inhibitory concentration (IC50) on cathepsin K was 9.6 nM; against cathepsin L, 6790 nM; against cathepsin B it was > 10000 nM; against cathepsin S, > 10000 nM.
